Measurements as given in US8759535B2, “Substituted fused imidazole derivatives, pharmaceutical compositions, and methods of use thereof” (High Point Pharmaceuticals, LLC, priority 2010, dated 2014).
Counter-ions that a name gives are not always drawn.

Each molecule was assayed on HMOX1 (assay: HMOX1 Protein Assay (immunostaining of HO-1 in NHLF cells, GE InCell 1000)). Details: Homo sapiens, fold change above DMSO treated cells, 3 μM compound (asterisk), 16 h.
Format: cell-based
Summary of the method: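 NHLF cells seeded overnight in FGM-2, then exposed to compound or DMSO vehicle for 16 h, fixed, and immunostained for HO-1 with Hoechst nuclear counterstain; imaged on InCell 1000. Values are fold change over DMSO-treated cells, generally at 5 μM (0.8% DMSO), with asterisked entries at 3 μM.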

| SMILES | fold induction at 3 µM |
| --- | --- |
| C[C@@H](NC(=O)c1ccc2c(c1)nc(Nc1nc3ccc(C(F)(F)F)cc3s1)n2C)C(=O)N(C)C [Example 468, 1-Methyl-2-(6-trifluoromethyl-benzothiazol-2-ylamino)-1H-benzoimidazole-5-carboxylic acid ((R)-1-dimethylcarbamoyl-ethyl)-amide] | 26.3 |
| COC(C)(C)CNC(=O)c1ccc2c(c1)nc(Nc1nc3ccc(C(F)(F)F)cc3s1)n2C [Example 208, 1-Methyl-2-(6-trifluoromethyl-benzothiazol-2-ylamino)-1H-benzoimidazole-5-carboxylic acid (2-methoxy-2-methyl-propyl)-amide] | 26.5 |

Same assay, conditions: Homo sapiens, fold change above DMSO treated cells, 5 μM compound, 16 h

| SMILES | fold induction at 5 µM |
| --- | --- |
| COCCOCCNC(=O)c1ccc2c(c1)nc(Nc1nc3ccc(OC(F)(F)F)cc3s1)n2C [Example 260, 1-Methyl-2-(6-trifluoromethoxy-benzothiazol-2-ylamino)-1H-benzoimidazole-5-carboxylic acid [2-(2-methoxy-ethoxy)-ethyl]-amide] | 27.1 |
| Cn1c(Nc2nc3ccc(OC(F)(F)F)cc3s2)nc2cc(C(=O)NCCN)ccc21 [Example 104, 1-Methyl-2-(6-trifluoromethoxy-benzothiazol-2-ylamino)-1H-benzoimidazole-5-carboxylic acid (2-amino-ethyl)-amide hydrochloride] | 16.3 |
| CNC(=O)c1ccc2c(c1)nc(Nc1nc3ccc(S(C)(=O)=O)cc3s1)n2C [Example 126, 2-(6-Methanesulfonyl-benzothiazol-2-ylamino)-1-methyl-1H-benzimidazole-5-carboxylic acid methylamide] | 4.6 |
| COCCn1c(Nc2nc3ccc(Cl)cc3s2)nc2cc(C(=O)NCC(=O)N(C)C)ccc21 [Example 366, 2-(6-Chloro-benzothiazol-2-ylamino)-1-(2-methoxy-ethyl)-1H-benzoimidazole-5-carboxylic acid dimethylcarbamoylmethyl-amide] | 18.8 |
| CCN(CC)c1cc2c(cc1C(=O)NCC(=O)N(C)C)nc(Nc1nc3ccc(OC(F)(F)F)cc3s1)n2C [Example 361, 6-Diethylamino-1-methyl-2-(6-trifluoromethoxy-benzothiazol-2-ylamino)-1H-benzoimidazole-5-carboxylic acid dimethylcarbamoylmethyl-amide] | 28.8 |
| COCCn1c(Nc2nc3ccc(Cl)cc3s2)nc2cc(C(=O)NC3CCN(CCO)CC3)ccc21 [Example 301, 2-(6-Chloro-benzothiazol-2-ylamino)-1-(2-methoxy-ethyl)-1H-benzoimidazole-5-carboxylic acid [1-(2-hydroxy-ethyl)-piperidin-4-yl]-amide] | 27.8 |
| COCCNC(=O)c1ccc2c(c1)nc(Nc1nc3ccc(OC(F)(F)F)cc3s1)n2CCF [Example 171, 1-(2-Fluoro-ethyl)-2-(6-trifluoromethoxy-benzothiazol-2-ylamino)-1H-benzoimidazole-5-carboxylic acid (2-methoxy-ethyl)-amide] | 22.8 |
| CNC(=O)c1ccc2c(c1)nc(Nc1nc3cc(F)ccc3s1)n2C [Example 122, 2-(5-Fluoro-benzothiazol-2-ylamino)-1-methyl-1H-benzimidazole-5-carboxylic acid methylamide] | 26.1 |
| Cn1c(Nc2nc3ccc(OC(F)(F)F)cc3s2)nc2cc(C(=O)NCC(=O)N3CCC[C@H]3CO)ccc21 [Example 406, 1-Methyl-2-(6-trifluoromethoxy-benzothiazol-2-ylamino)-1H-benzoimidazole-5-carboxylic acid [2-((S)-2-hydroxymethyl-pyrrolidin-1-yl)-2-oxo-ethyl]-amide] | 31 |
| CN(CCO)C(=O)CNC(=O)c1ccc2c(c1)nc(Nc1nc3ccc(OC(F)(F)F)cc3s1)n2C [Example 390, 1-Methyl-2-(6-trifluoromethoxy-benzothiazol-2-ylamino)-1H-benzoimidazole-5-carboxylic acid {[(2-hydroxy-ethyl)-methyl-carbamoyl]-methyl}-amide] | 46.4 |
